# Results taken from patent publication US20250179032A1, “HETEROCYCLIC INHIBITORS OF GLUT9 FOR TREATMENT OF DISEASE” (HORIZON THERAPEUTICS IRELAND DAC, priority 2022, published 2025).
# Where two headings read alike, the source gives them in different places.
# Target: T1, H. sapiens SLC2A9 variant 2 (GLUT9B) (Homo sapiens, UniProt Q9NRM0)
# T1 sequence (Q9NRM0 1-511 isoform Q9NRM0-2): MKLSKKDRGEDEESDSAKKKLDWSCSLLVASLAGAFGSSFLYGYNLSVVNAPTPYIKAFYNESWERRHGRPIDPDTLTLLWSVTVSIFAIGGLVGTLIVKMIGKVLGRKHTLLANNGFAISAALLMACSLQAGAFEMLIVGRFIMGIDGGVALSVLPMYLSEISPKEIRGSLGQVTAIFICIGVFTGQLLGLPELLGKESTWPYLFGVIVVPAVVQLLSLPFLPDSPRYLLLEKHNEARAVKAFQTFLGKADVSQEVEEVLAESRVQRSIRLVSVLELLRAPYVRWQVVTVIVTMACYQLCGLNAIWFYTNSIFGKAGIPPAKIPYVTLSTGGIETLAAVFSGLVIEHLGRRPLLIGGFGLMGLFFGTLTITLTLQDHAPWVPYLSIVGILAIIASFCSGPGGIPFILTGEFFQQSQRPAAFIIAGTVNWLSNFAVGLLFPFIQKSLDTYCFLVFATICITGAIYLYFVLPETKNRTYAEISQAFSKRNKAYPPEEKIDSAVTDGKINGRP
# Test: GLUT9 functional assay: uric acid uptake in HEK293T cells, allantoin formation by MS/MS as proxy of GLUT9B inhibition
# Type: cell-based
# Conditions: HEK293T cells stably expressing GLUT9B and transiently A. oryzae uricase, uric acid 0.3 mM, 37° C.
# Method in brief: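 HEK293T cells stably expressing human GLUT9B and transiently expressing A. oryzae uricase, exposed across a 12-point curve to 0.3 mM uric acid (Km) in sodium gluconate buffer pH 7.4 for 15 or 60 min at 37° C. Allantoin in lysates quantified by RapidFire MS/MS (positive ion) against a matrix-matched standard curve as proxy for uptake.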
# [1] = 15 minute assay, read-out: 15 min IC50
# [2] = 60 minute assay, read-out: 60 min IC50
Structure (SMILES),IC50 [1] [nM],IC50 [2] [nM]
"O=C(O)C1(O)CCN(c2nc(CCCC(F)(F)F)cnc2-c2cc(F)c3occc3c2)CC1 [Compound 165, 1-(3-(7-fluorobenzofuran-5-yl)-6-(4,4,4-trifluorobutyl)pyrazin-2-yl)-4-hydroxypiperidine-4-carboxylic acid]",< 500,–
"CCCCc1cnc(-c2ccc3c(c2)C(=O)CO3)c(N2CCC(C(=O)O)CC2)n1 [Compound 47, 1-(6-butyl-3-(3-oxo-2,3-dihydrobenzofuran-5-yl)pyrazin-2-yl)piperidine-4-carboxylic acid]",500 to 2000,–
"COCc1cnc(-c2cc(F)c3ccn(C)c3c2)c(N2CCC(C(=O)O)CC2)n1 [Compound 52, 1-(3-(4-fluoro-1-methyl-1H-indol-6-yl)-6-(methoxymethyl)pyrazin-2-yl)piperidine-4-carboxylic acid]",< 500,–
"CN(C)S(=O)(=O)N1CCN(c2nc(CCC(F)(F)F)cnc2-c2ccc3occc3c2)CC1 [Compound 106, 4-(3-(benzofuran-5-yl)-6-(3,3,3-trifluoropropyl)pyrazin-2-yl)-N,N-dimethylpiperazine-1-sulfonamide]",> 2000,–
"COCCCc1cnc(-c2cc(Cl)c3occc3c2)c(N2CCC(C(=O)O)CC2)n1 [Compound 224, 1-(3-(7-chlorobenzofuran-5-yl)-6-(3-methoxypropyl)pyrazin-2-yl)piperidine-4-carboxylic acid]",–,< 500
"COCCCc1cnc(-c2ccc3occc3n2)c(N2CCC(C(=O)O)CC2)n1 [Compound 241, 1-(3-(furo[3,2-b]pyridin-5-yl)-6-(3-methoxypropyl)pyrazin-2-yl)piperidine-4-carboxylic acid]",–,> 2000
"CCCCc1cnc(-c2ccc(OC)cc2)c(-c2cc(=O)[nH][nH]2)c1 [Compound 26, 5-(5-butyl-2-(4-methoxyphenyl)pyridin-3-yl)-1,2-dihydro-3H-pyrazol-3-one]",> 2000,–
"COCCCc1cnc(-c2ccnc3c2ccn3C)c(N2CCC(C(=O)O)CC2)n1 [Compound 214, 1-(6-(3-methoxypropyl)-3-(1-methyl-1H-pyrrolo[2,3-b]pyridin-4-yl)pyrazin-2-yl)piperidine-4-carboxylic acid]",–,> 2000
"COCCCc1cnc(-c2ccc3occc3c2)c(N2CC(C(=O)O)C2)n1 [Compound 175, 1-(3-(benzofuran-5-yl)-6-(3-methoxypropyl)pyrazin-2-yl)azetidine-3-carboxylic acid]",> 2000,> 2000
"COCCCc1cnc(-c2ccc3c(c2)OCO3)c(N2CCC3(CC(C(=O)O)C3)C2)c1 (stereo not shown) [Compound 247, 6-(2-(benzo[d][1,3]dioxol-5-yl)-5-(3-methoxypropyl)pyridin-3-yl)-6-azaspiro[3.4]octane-2-carboxylic acid]",–,500 to 2000
"COCCCc1cnc(-c2ccc3nccn3n2)c(N2CCC(C(=O)O)CC2)n1 [Compound 211, 1-(3-(imidazo[1,2-b]pyridazin-6-yl)-6-(3-methoxypropyl)pyrazin-2-yl)piperidine-4-carboxylic acid]",–,> 2000
"CCCCc1cnc(-c2ccc(OC)cc2)c(-c2ccc(C(=O)O)nc2)c1 [Compound 18, 5′-butyl-2′-(4-methoxyphenyl)-[3,3′-bipyridine]-6-carboxylic acid]",> 2000,–
"COCCCc1cnc(-c2cnc3c(c2)NCCO3)c(N2CCC(C(=O)O)CC2)n1 [Compound 216, 1-(3-(2,3-dihydro-1H-pyrido[2,3-b][1,4]oxazin-7-yl)-6-(3-methoxypropyl)pyrazin-2-yl)piperidine-4-carboxylic acid]",–,> 2000
"COCCCc1cnc(-c2cc(F)c3occc3c2)c(N2CC[C@H](C(=O)O)C[C@@H]2C)n1 (single isomer, unassigned) [Compound 229]",–,< 500
"COCCCc1cnc(-c2ccc3ncnn3c2)c(N2CCC(C(=O)O)CC2)n1 [Compound 195, 1-(3-([1,2,4]triazolo[1,5-a]pyridin-6-yl)-6-(3-methoxypropyl)pyrazin-2-yl)piperidine-4-carboxylic acid]",–,> 2000
"CCCCc1cnc(-c2ccc(OC)cc2)c(-c2csc(C(=O)O)c2)c1 [Compound 19, 4-(5-butyl-2-(4-methoxyphenyl)pyridin-3-yl)thiophene-2-carboxylic acid]",500 to 2000,–

# Next, values leading:
IC50 [1] [nM],IC50 [2] [nM],Structure (SMILES)
500 to 2000,–,"O=C(O)C1CCN(c2nc(CCCC(F)(F)F)cnc2-c2ccc(C(F)(F)F)cc2)CC1 [Compound 158, 1-(6-(4,4,4-trifluorobutyl)-3-(4-(trifluoromethyl)phenyl)pyrazin-2-yl)piperidine-4-carboxylic acid]"
< 500,–,"O=C(O)C1CCN(c2nc(CCC(F)(F)C(F)(F)F)cnc2-c2ccc3c(c2)OCO3)CC1 [Compound 126, 1-(3-(benzo[d][1,3]dioxol-5-yl)-6-(3,3,4,4,4-pentafluorobutyl)pyrazin-2-yl)piperidine-4-carboxylic acid]"
> 2000,–,"COc1ccc(-c2nc(Cl)c(COCC(F)(F)F)nc2N2CCC(C(=O)O)CC2)cc1 [Compound 54, 1-(5-chloro-3-(4-methoxyphenyl)-6-((2,2,2-trifluoroethoxy)methyl)pyrazin-2-yl)piperidine-4-carboxylic acid]"
> 2000,–,"COCCCc1cnc(-c2cc(C(F)(F)F)c3occc3c2)c(N2CCC(C(=O)O)CC2)n1 [Compound 237, 1-(6-(3-methoxypropyl)-3-(7-(trifluoromethyl)benzofuran-5-yl)pyrazin-2-yl)piperidine-4-carboxylic acid]"
–,< 500,"COCCCc1cnc(-c2ccc3sccc3c2)c(N2CCC(C(=O)O)CC2)n1 [Compound 226, 1-(3-(benzo[b]thiophen-5-yl)-6-(3-methoxypropyl)pyrazin-2-yl)piperidine-4-carboxylic acid]"
500 to 2000,–,"O=C(O)C1CCN(c2nc(CCC(F)(F)F)cnc2-c2ccc(C(F)(F)F)cc2)CC1 [Compound 162, 1-(3-(4-(trifluoromethyl)phenyl)-6-(3,3,3-trifluoropropyl)pyrazin-2-yl)piperidine-4-carboxylic acid]"
< 500,–,"O=C(O)C1CCN(c2nc(CCCC(F)F)cnc2-c2ccc3c(c2)CCO3)CC1 [Compound 143, 1-(6-(4,4-difluorobutyl)-3-(2,3-dihydrobenzofuran-5-yl)pyrazin-2-yl)piperidine-4-carboxylic acid]"
> 2000,–,"O=C1COc2ccc(-c3ncc(CCCC(F)(F)F)nc3N3CCC(C(=O)O)CC3)cc2N1 [Compound 115, 1-(3-(3-oxo-3,4-dihydro-2H-benzo[b][1,4]oxazin-6-yl)-6-(4,4,4-trifluorobutyl)pyrazin-2-yl)piperidine-4-carboxylic acid]"
500 to 2000,–,"CC(F)(F)CCc1cnc(-c2ccc3c(c2)CCO3)c(N2CCC(C(=O)O)CC2)n1 [Compound 135, 1-(6-(3,3-difluorobutyl)-3-(2,3-dihydrobenzofuran-5-yl)pyrazin-2-yl)piperidine-4-carboxylic acid]"
–,500 to 2000,"COCCCc1cnc(-c2cc(OC(F)(F)F)c3occc3c2)c(N2CCC(C(=O)O)CC2)n1 [Compound 238, 1-(6-(3-methoxypropyl)-3-(7-(trifluoromethoxy)benzofuran-5-yl)pyrazin-2-yl)piperidine-4-carboxylic acid]"
> 2000,–,"O=C(O)C1CCN(c2nc(COCC(F)(F)F)cnc2-c2cnc3c(c2)CCO3)CC1 [Compound 72, 1-(3-(2,3-dihydrofuro[2,3-b]pyridin-5-yl)-6-((2,2,2-trifluoroethoxy)methyl)pyrazin-2-yl)piperidine-4-carboxylic acid]"
